Measurements as given in paper PMC8291587, “Guanidine Derivatives: How Simple Structural Modification of Histamine H3R Antagonists Has Led to the Discovery of Potent Muscarinic M2R/M4R Antagonists” (ACS Chemical Neuroscience, 2021).
Where “and” joins values, the source holds several entries; their conditions need not be identical. Equal entries are not always repeated. Where two headings read alike, the source gives them in different places.

Experiments:
M2R/M3R = assay: Ex vivo screening of muscarinic M2R/M3R antagonists on isolated guinea pig ileum (methacholine-induced contraction); details: methacholine as agonist
Procedure: Another group of guinea pig intestinal receptors able to regulate smooth muscle contraction is that of the muscarinic receptors, including M2R and M3R. All compounds were tested on the muscarinic receptors using the same animal model. This approach is similar to measuring histamine H1R antagonist activity. Methacholine was used as a receptor agonist, while 1,1-dimethyl-4-diphenylacetoxypiperidinium iodide (4-DAMP) was used as a reference M3R antagonist. As methacholine is not selective according to M2R and M3R, it is not possible to precisely specify which one was responsible for the effect observed on the tissue preparations. Some authors often attribute the results to the minor M3R subtype (gpM2R:M3R = 4:1 or 5:1), which is generally associated with the contractions,[38] but such an overinterpretation may be misleading, as indicated by our further hM1R-hM5R radioligand binding assay results shown in Table 2. […] These findings partially explain the influence of ADS10227 on the contractility of guinea pig ileum following electrical stimulation. […] In subsequent studies, we tried to clarify this.
Male guinea pigs, weighing 300–400 g, were euthanized by a blow to the neck. A 20–30 cm length of the distal ileum, apart from the terminal 5 cm, was rapidly removed and placed in phosphate buffer at room temperature (pH 7.4) containing (mM) NaCl (136.9), KCl (2.6), KH2PO4 (1.47), Na2HPO4 (9.58), and indomethacin (1 × 10^–6 mol/L)). The intraluminal content was rinsed, and the isolated intestine was cut into 1.5–2 cm segments. The preparations were mounted isotonically in a 20 mL organ bath filled with Tyrode’s buffer: composition (mM) NaCl (137), KCl (2.7), MgCl2·6H2O (1.0), CaCl2 (1.8), NaH2PO4·H2O (0.4), NaHCO3 (11.9), glucose (5.61), and indomethacin (3 × 10^–7 mol/L). The solution was continuously bubbled with a 95% O2:5% CO2 mixture and maintained at 37 °C under a constant load of 0.5 g (Hugo Sachs Hebel–Messvorsatz (Tl-2)/HF-modem; Hugo Sachs Elektronik, Hugstetten, Germany) connected to a pen recorder (Kipp & Zonen BD41, Delft, Holland). During an equilibration period of 40 min, Tyrode’s buffer was changed every 10 min. The first cumulative concentration–response curve was determined for methacholine (10 nM to 3 mM) at increasing concentrations spaced by 3- or 3.3-fold. The second to the fourth (or fifth) curves were measured in the presence of an increasing concentration of antagonist (incubation time 20 min). The pA2 values were calculated according to Arunlakshana and Schild.[37] Statistical analysis was carried out with the Students’ t test. In all tests, a p < 0.05 was considered statistically significant.

H1R = molecular target: T1, H1R (Cavia porcellus, UniProt P31389); assay: Ex vivo screening of histamine H1R antagonists on guinea pig ileum, variant without atropine; details: isolated guinea pig ileum, histamine as agonist
T1 construct: from tissue; host or cells: isolated distal ileum of male guinea pigs
Procedure: The second histamine receptor located in the guinea pig ileum is H1R. […] The H1R antagonistic effect was measured on isolated guinea pig ileum stimulated to contract by histamine.[37] To assess and exclude the influence of the ADS compounds on muscarinic receptors, two test variations were used: one with the addition of 0.05 μM atropine and one without.
Male guinea pigs, weighing 300–400 g, were euthanized by a blow to the neck. A 20–30 cm length of the distal ileum, apart from the terminal 5 cm, was rapidly removed and placed in phosphate buffer at room temperature (pH 7.4) containing (mM) NaCl (136.9), KCl (2.6), KH2PO4 (1.47), Na2HPO4 (9.58), and indomethacin (1 × 10^–6 mol/L). The intraluminal content was rinsed, and the isolated intestine was cut into 1.5–2 cm segments. The preparations were mounted isotonically in a 20 mL organ bath filled with Krebs buffer: composition (mM) NaCl (118), KCl (5.6), MgSO4 (1.18), CaCl2 (2.5), NaH2PO4·H2O (1.28), NaHCO3 (25), glucose (5.55), and indomethacin (3 × 10^–7 mol/L). […] The solution was continuously bubbled with a 95% O2:5% CO2 mixture and maintained at 37 °C under a constant load of 0.5 g (Hugo Sachs Hebel–Messvorsatz (Tl-2)/HF-modem; Hugo Sachs Elektronik, Hugstetten, Germany) connected to a pen recorder (Kipp & Zonen BD41, Delft, Holland). During an equilibration period of 40 min, Krebs buffer was changed every 10 min. The first cumulative concentration–response curve was determined for histamine (10 nM to 10 mM) at increasing concentrations spaced by 3- or 3.3-fold. The second to the fourth (or fifth) curves were measured in the presence of an increasing concentrations of antagonist (incubation time 10 min). The pA2 values were calculated according to Arunlakshana and Schild.[37] Statistical analysis was carried out with the Students’ t test. In all tests, a p < 0.05 was considered statistically significant.

[1] = tested on: electrically stimulated guinea pig ileum; assay: Decrease of contractility in electrically stimulated guinea pig ileum (-log EC50 determination); details: for EC50: Cavia porcellus, read-out: Decrease of contractility (-logEC50 ± sem) (converted); for intrinsic activity (maximal response as fraction of maximal response of the system): from concentration–response curves
Procedure: A standard ex vivo assay based on the relaxant response of histamine H3R agonists to electrically driven guinea pig ileum was used to test the influence of ADS compounds on the reduction of electrically evoked tissue contraction. […] The −log EC50 value for RAMH and ADS compounds were evaluated. […] Following this, we decided to evaluate the ADS series as potential M2R/M3R ligands on the isolated guinea pig ileum.
Male guinea pigs, weighing 300–400 g, were euthanized by a blow to the neck. A 20–30 cm length of the distal ileum, apart from the terminal 5 cm, was rapidly removed and placed in phosphate buffer at room temperature (pH 7.4) containing (mM) NaCl (136.9), KCl (2.6), KH2PO4 (1.47), Na2HPO4 (9.58), and indomethacin (1 × 10^–6 mol/L)). The intraluminal content was rinsed, and the isolated intestine was cut into 1.5–2 cm segments. The preparations were mounted between two platinum electrodes isotonically in a 20 mL organ bath filled with Krebs buffer: composition (mM) NaCl (118), KCl (5.6), MgSO4 (1.18), CaCl2 (2.5), NaH2PO4·H2O (1.28), NaHCO3 (25), glucose (5.55), and indomethacin (3 × 10^–7 mol/L). The solution was continuously bubbled with a 95% O2:5% CO2 mixture and maintained at 37 °C under a constant load of 1.0 g (Hugo Sachs Hebel–Messvorsatz (Tl-2)/HF-modem; Hugo Sachs Elektronik, Hugstetten, Germany) connected to a pen recorder (Kipp & Zonen BD41, Delft, Holland). During an equilibration period of 60 min, Krebs buffer was changed every 10 min. Following this, the preparations were continuously stimulated at 15–20 V, at a frequency of 0.1 Hz for a duration of 0.5 ms, with rectangular-wave electrical pulses (Grass Stimulator S-88; Grass Instruments Co., Quincy, Massachusetts, USA). […] Cumulative concentration–response curve was determined to RAMH or tested agonist (10 nM to 10 mM) at increasing concentrations spaced by 3- or 3.3-fold. The agonist potency is expressed as pD2 value (−log EC50) ± sem.

[2] = read-out: H1R pA2 gpi ± sem (converted)
[3] = electrically stimulated guinea pig ileum

T1 sequence (P31389 whole entry): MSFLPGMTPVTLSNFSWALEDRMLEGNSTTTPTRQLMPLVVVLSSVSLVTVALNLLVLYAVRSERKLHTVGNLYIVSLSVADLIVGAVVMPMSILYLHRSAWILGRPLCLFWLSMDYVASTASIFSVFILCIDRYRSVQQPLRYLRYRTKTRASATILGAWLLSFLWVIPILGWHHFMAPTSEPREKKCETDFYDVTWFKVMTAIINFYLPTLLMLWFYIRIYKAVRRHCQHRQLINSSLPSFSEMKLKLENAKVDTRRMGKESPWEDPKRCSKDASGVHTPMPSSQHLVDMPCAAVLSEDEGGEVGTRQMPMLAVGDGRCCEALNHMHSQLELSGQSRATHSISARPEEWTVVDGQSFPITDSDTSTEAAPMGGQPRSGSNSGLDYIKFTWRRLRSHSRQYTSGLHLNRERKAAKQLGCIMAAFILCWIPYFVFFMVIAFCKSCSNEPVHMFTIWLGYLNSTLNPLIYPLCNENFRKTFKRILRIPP

| Compound | M2R/M3R pA2 gpi ± sem (M2R/M3R) | Kb (H1R; H1R pA2 gpi ± sem) | EC50 [1] | Kb (H1R; [2]) | EC50 [1, 3] | intrinsic activity (maximal response as fraction of maximal response of the system) [1, 3] |
| --- | --- | --- | --- | --- | --- | --- |
| N=C(N)N(CCCCN1CCN(CCCCCCCOc2ccccc2)CC1)Cc1ccccc1 [ADS1017] | 6.36 and 6.36 ±0.10 | 331 nM | 661 nM | – | – | – |
| N=C(N)N(CCCCN1CCN(C[C@H]2CC[C@@H](COc3ccccc3)CC2)CC1)Cc1ccccc1 [ADS10227, 1-{4-{4-{[4-(phenoxymethyl)cyclohexyl]methyl}piperazin-1-yl}but-1-yl}-1-(benzyl)guanidine] | 6.97±0.09 | – | – | 70.8 nM | 132 nM | 0.97 |
| [H]/N=C(/N)N(CCCCN1CCN(CC2CCC(COc3ccccc3)CC2)CC1)Cc1ccc(C(F)(F)F)cc1 (centres unmarked) [ADS10239] | 6.46±0.11 | – | – | 110 nM | 240 nM | 0.98 |
